# According to patent US20160002247A1, “8-SUBSTITUTED IMIDAZOPYRIMIDINONE DERIVATIVE HAVING AUTOTAXIN INHIBITORY ACTIVITY” (THE UNIVERSITY OF TOKYO, priority 2013, published 2016):
# Target: T1, Human autotaxin enzyme (Homo sapiens, UniProt Q13822)
# T1 construct: purchased R&D System
# Assay: Evaluation of autotaxin inhibitor, Method C (Test Example 3): 18:0 Lyso PC, choline assay, Resorufin fluorescence
# Assay type: biochemical
# Settings: Assay Method C (Test Example 3), human autotaxin, 18:0 Lyso PC substrate; read-out: Inhibitory Activity (autotaxin enzyme inhibitory activity, IC50 class)
# Procedure, shortened: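 Human autotaxin in Tris-HCl pH 7.5, 150 mM NaCl, 5 mM MgCl2, 0.05% Triton X-100 reacted 2 h at room temperature with 18:0 Lyso PC (200 μM solution added). Released choline detected via choline oxidase/peroxidase/Amplex-type reagent, resorufin fluorescence (ex 531/em 598 nm); inhibition vs no-compound and no-enzyme controls, concentration-response curve.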
row,Compound,IC50 [nM]
1,CCn1c(N2C[C@H](O)C[C@H]2C(=O)N[C@@H](C)C(=O)O)cc(=O)n2cc(-c3ccc(Cl)cc3)nc12 [Compound 766],10 to 100
2,CCCCCn1c(-c2ccc(SC)cc2)cc(=O)n2cc(-c3ccc(Cl)cc3)nc12 [Compound 432],100 to 1000
3,CCCCCn1c(N2CCC[C@H]2C(=O)N(C)CC(=O)N(C)CC(=O)OC)cc(=O)n2cc(-c3ccc(Cl)cc3)nc12 [Compound 684],10 to 100
4,CCCCCn1c(NC2(C(=O)O)CC2)cc(=O)n2cc(-c3ccc(Cl)cc3)nc12 [Compound 610],> 1000
5,CCCCCn1c(N2C[C@H](O)C[C@H]2C(=O)O)cc(=O)n2cc(-c3ccc(Cl)cc3)nc12 [Compound 589],> 1000
6,CCCCCn1c(-c2ccc(C(C)=O)cc2)cc(=O)n2cc(-c3ccc(Cl)cc3)nc12 [Compound 391],10 to 100
7,CCCCCn1c(-c2ccc(OCCO)c(S(N)(=O)=O)c2)cc(=O)n2cc(-c3ccc(Cl)cc3)nc12 [Compound 451],10 to 100
8,CCCCCn1c(N2C[C@@H](O)C[C@H]2C(=O)N[C@@H](CCc2ccccc2)C(=O)O)cc(=O)n2cc(-c3ccc(Cl)cc3)nc12 [Compound 777],< 10
9,CCCCCn1c(-c2ccc(C(=O)N3CCN(S(C)(=O)=O)CC3)cc2)cc(=O)n2cc(-c3ccc(Cl)cc3)nc12 [Compound 498],10 to 100
10,CCCCCn1c(N2CC[C@H](C(=O)O)C2)cc(=O)n2cc(-c3ccc(Cl)cc3)nc12 [Compound 670],10 to 100
11,CCCCCn1c(N2CCC[C@H]2C(=O)N[C@@H]2CCCNC2=O)cc(=O)n2cc(-c3ccc(Cl)cc3)nc12 [Compound 711],100 to 1000
12,CCCCCn1c(N2CCC[C@H]2C(=O)NCCC(=O)N(C)C)cc(=O)n2cc(-c3ccc(Cl)cc3)nc12 [Compound 344],100 to 1000
13,CCCCCn1c(NCCC(=O)NCC(=O)O)cc(=O)n2cc(-c3ccc(Cl)cc3)nc12 [Compound 630],100 to 1000
14,CCCCCn1c(NC2(C(=O)NCC(=O)O)CC2)cc(=O)n2cc(-c3ccc(Cl)cc3)nc12 [Compound 637],> 1000
15,CCCCCn1c(N2CCC[C@H]2C(=O)N[C@@H](CC)C(=O)O)cc(=O)n2cc(-c3ccc(Cl)cc3)nc12 [Compound 729],< 10
16,CCCCCn1c(C2=CCN(S(C)(=O)=O)CC2)cc(=O)n2cc(-c3ccc(Cl)cc3)nc12 [Compound 547],10 to 100
17,CCCCCn1c(-c2ccc(S(=O)(=O)NCCO)cc2)cc(=O)n2cc(-c3ccc(Cl)cc3)nc12 [Compound 412],10 to 100
18,CCCCCn1c(-c2ccc(C(=O)NCc3ncc[nH]3)cc2)cc(=O)n2cc(-c3ccc(Cl)cc3)nc12 [Compound 525],10 to 100
19,CCCCCn1c(O[C@H]2CCN(CC(=O)OC(C)(C)C)C2)cc(=O)n2cc(-c3ccc(Cl)cc3)nc12 [Compound 573],10 to 100
20,CCCCCn1c(N2CCC[C@H]2C(=O)N2CCCC(C(N)=O)C2)cc(=O)n2cc(-c3ccc(Cl)cc3)nc12 (stereo partly shown) [Compound 695],100 to 1000
21,CCCCCn1c(-c2ccc(C(=O)NCc3ccc(S(N)(=O)=O)cc3)cc2)cc(=O)n2cc(-c3ccc(Cl)cc3)nc12 [Compound 521],10 to 100

# Same assay, conditions: Assay Method C, human autotaxin, 18:0 Lyso PC substrate; read-out: Inhibitory Activity
row,Compound,IC50 [nM]
1,CCCCCn1c(N2CCC[C@H]2C(=O)Nc2ccccc2-c2nn[nH]n2)cc(=O)n2cc(-c3ccc(Cl)cc3)nc12 [Compound 791],100 to 1000
2,O=C(O)c1cccc(Cc2cn(CCCC(F)(F)F)c3nc(-c4ccc(Cl)cc4)cn3c2=O)c1 [Compound 826],10 to 100
3,CCCCCn1c(N2CCC[C@H]2C(=O)Nc2ccc(OC)c(O)c2)cc(=O)n2cc(-c3ccc(Cl)cc3)nc12 [Compound 798],100 to 1000
4,O=C(Cc1cn(CCCC(F)(F)F)c2nc(-c3ccc(Cl)cc3)cn2c1=O)N1CCN(CCO)CC1 [Compound 853],> 1000
5,CCCCCn1c(N2CCCC[C@@H]2C)cc(=O)n2cc(-c3ccc(Cl)cc3)nc12 [Compound 808],> 1000
6,O=C(Cc1cn(CCCC(F)(F)F)c2nc(-c3ccc(Cl)cc3)cn2c1=O)N[C@@H](CO)Cc1ccccc1 [Compound 848],> 1000

# Same assay, conditions: Assay Method: Method C (Test Example 3); read-out: Inhibitory Activity (Enzyme Inhibitory Activity, IC50)
row,Compound,IC50 [nM]
1,Cc1cc(=O)n2cc(-c3ccc(Cl)cc3)nc2n1CCCC(C)O (stereo not shown) [Compound 46],> 1000
